Reference: PMC9098912, “Molecular basis for inhibiting human glucose transporters by exofacial inhibitors” (Nature Communications, 2022)
Where “and” joins values, the source holds several entries; their conditions need not be identical. Identical values can stand only once. Entries after “also recorded” stand apart in the source; their conditions may differ.

Key:
[1] = molecular target: T1, human glucose transporter GLUT1(N45T) (Homo sapiens, UniProt P11166, N45T); conditions: 50 mM maltose, cited from earlier work
T1 construct: made in house
T1 sequence (P11166 1-492 N45T): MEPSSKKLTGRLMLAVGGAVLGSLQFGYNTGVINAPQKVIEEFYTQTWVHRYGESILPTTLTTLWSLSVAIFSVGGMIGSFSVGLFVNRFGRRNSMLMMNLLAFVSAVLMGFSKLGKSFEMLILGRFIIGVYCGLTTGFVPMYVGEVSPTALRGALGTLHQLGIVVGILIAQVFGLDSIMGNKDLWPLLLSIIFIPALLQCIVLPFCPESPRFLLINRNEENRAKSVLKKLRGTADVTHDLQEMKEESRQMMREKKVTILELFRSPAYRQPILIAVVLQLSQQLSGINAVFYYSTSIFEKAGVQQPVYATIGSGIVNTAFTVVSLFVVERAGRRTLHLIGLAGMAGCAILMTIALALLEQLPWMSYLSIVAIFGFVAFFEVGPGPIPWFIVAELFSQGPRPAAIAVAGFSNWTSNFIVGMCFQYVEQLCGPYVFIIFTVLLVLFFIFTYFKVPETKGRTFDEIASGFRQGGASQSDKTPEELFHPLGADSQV

human GLUT3(N43T) [2] = molecular target: T2, human GLUT3(N43T) (Homo sapiens, UniProt P11169, N43T); conditions: 50 mM maltose, cited from earlier work
T2 construct: His10 (N); made in house; host or cells: Sf9 insect cells (baculovirus)
T2 sequence (P11169 1-496 N43T): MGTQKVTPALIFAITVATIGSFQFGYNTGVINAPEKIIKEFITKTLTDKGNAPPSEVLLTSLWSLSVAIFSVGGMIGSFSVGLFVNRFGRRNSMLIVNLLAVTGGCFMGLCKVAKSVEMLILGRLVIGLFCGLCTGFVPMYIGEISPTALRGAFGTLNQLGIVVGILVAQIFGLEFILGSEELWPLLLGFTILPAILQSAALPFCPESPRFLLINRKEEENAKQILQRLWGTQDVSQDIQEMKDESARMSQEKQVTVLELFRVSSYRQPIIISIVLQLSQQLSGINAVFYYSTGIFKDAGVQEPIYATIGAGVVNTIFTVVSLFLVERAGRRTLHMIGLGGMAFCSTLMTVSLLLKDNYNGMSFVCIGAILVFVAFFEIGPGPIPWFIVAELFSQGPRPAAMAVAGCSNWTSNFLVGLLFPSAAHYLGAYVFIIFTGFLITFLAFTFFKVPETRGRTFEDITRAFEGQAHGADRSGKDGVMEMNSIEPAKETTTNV

[3] = molecular target: T3, GLUT3exo (GLUT3 S64W and I305W) (Homo sapiens, UniProt P11169, I305W/N43T/S64W); test: biochemical; type: binding; conditions: GLUT3 dTrp mutant, log [CCB]
T3 construct: His10 (N); made in house; host or cells: Sf9 insect cells (baculovirus)
T3 sequence (P11169 whole entry N43T/S64W/I305W): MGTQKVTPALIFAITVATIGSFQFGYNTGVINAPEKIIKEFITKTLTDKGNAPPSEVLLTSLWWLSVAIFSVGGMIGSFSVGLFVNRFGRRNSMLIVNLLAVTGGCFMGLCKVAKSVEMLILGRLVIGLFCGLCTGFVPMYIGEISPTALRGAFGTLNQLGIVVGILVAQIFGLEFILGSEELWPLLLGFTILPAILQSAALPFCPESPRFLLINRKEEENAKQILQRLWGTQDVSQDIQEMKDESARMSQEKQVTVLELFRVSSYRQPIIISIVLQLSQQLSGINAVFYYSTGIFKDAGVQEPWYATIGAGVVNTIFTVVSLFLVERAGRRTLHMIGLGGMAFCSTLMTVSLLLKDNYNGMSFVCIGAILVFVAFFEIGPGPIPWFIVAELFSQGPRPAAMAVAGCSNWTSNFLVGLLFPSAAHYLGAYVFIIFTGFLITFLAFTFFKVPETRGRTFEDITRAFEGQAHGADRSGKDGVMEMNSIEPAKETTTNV
Procedure: Following the same principle for the engineering of XylE-WW, we introduced two Trp substitutions, S64W and I305W, on the extracellular segments of TM2 and TM8 of GLUT3, respectively. This variant will be referred to as GLUT3exo hereafter (Fig. 1a). The two bulky substituents were expected to trap GLUT3 in an outward-facing conformation.
(§1) All mutants were generated by standard PCR-based strategy.
(§2) Inhibitors with serial dilutions were mixed with indicated protein. […] MST analyses were conducted on a Monolith NT. […] The MST data was analyzed by Monolith NT.115.

WT GLUT3 = molecular target: T4, WT GLUT3 (Homo sapiens, UniProt P11169, N43T); test: Microscale thermophoresis (MST) binding assay; set-up: Figure 1e middle: MST binding curve, Mean / Figure 1e right: MST binding curve, Mean / Figure 2c: MST binding curve, Mean: unit not given here; conditions: GLUT3, log [CCB]
T4 construct: His10 (N); made in house; host or cells: Sf9 insect cells (baculovirus)
T4 sequence (P11169 1-496 N43T): T2 sequence (P11169 1-496 N43T)
Procedure: as §1, §2

[4] = molecular target: T1, human glucose transporter GLUT1(N45T); test: Proteoliposome-based counterflow assay, inhibition of D-[2-3H]-glucose transport; type: biochemical; conditions: 100 μM inhibitor; for Figure S1c: transport activity in presence of inhibitor (value1-3): 100 µM
Procedure: as §1
(§3) All counterflow assays were performed at 25 °C. […] Liposome without protein was used as negative control.
(§4) All experiments were repeated at least three times.

human GLUT3(N43T) [5] = molecular target: T2, human GLUT3(N43T); test: as above; type: biochemical; conditions: 100 μM inhibitor
Procedure: as §1, §3, §4

[6] = molecular target: E. coli (strain O157:H7) D-xylose:proton symporter XylE (Escherichia coli O157:H7, UniProt P0AGF5)
Sequence of E. coli (strain O157:H7) D-xylose:proton symporter XylE (P0AGF5 whole entry, the tested form may be a part): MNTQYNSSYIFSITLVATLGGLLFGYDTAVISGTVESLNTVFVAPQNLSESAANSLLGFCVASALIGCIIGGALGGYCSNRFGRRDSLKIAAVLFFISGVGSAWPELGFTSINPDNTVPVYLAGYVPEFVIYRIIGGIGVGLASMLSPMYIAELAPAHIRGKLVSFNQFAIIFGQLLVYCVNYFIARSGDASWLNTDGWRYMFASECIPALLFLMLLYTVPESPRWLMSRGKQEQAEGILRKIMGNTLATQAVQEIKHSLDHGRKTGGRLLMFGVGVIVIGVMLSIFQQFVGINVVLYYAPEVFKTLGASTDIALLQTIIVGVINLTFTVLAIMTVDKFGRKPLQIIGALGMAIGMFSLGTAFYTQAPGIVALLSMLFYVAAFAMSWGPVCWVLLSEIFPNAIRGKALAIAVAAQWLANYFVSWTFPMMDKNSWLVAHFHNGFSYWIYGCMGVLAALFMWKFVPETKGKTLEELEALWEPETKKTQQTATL
Procedure: The recombinant human glucose transporter GLUT1(N45T) and E. coli (strain O157:H7) D-xylose:proton symporter XylE were expressed and purified as described previously[17],[26]. […] In brief, the cDNA of human GLUT3 was cloned into a modified pFastBac vector (Invitrogen) fused with an N-terminal His10 tag. All mutants were generated by standard PCR-based strategy.
E. coli polar lipids (Avanti) were dissolved, dried, and resuspended to a final concentration of 20 mg/ml with the KPM 6.5 buffer (50 mM potassium phosphate, 2 mM MgSO4; pH 6.5) supplemented with 50 mM D-glucose or xylose (Sigma). After freeze-and-thaw with liquid nitrogen, the liposomes were extruded through 0.4 μm polycarbonate membranes (Millipore) and incubated with 1% n-octyl-β-d-glucoside (β-OG; Anatrace) at 4 °C for 30 min. Purified protein was incubated with liposomes at a ratio of ~1:100 (w/w) for 60 min. Then β-OG was removed by incubating with Bio-Beads SM2 (Bio-Rad) overnight. The proteoliposomes were subject to freeze-and-thaw again and extruded through 0.4 μm polycarbonate membranes. The homogenized proteoliposomes were ultracentrifuged at 100,000 g at 4 °C for 1 h and rinsed twice with the ice cold KPM 6.5 buffer. Finally, the proteoliposomes were resuspended in the KPM 6.5 buffer to a final concentration of 100 mg/ml (phospholipids).
All counterflow assays were performed at 25 °C. For each assay, an aliquot of 2 μl proteoliposomes was added into 98 μl KPM 6.5 buffer plus 1 μCi D-[2-^3H] glucose (specific radioactivity 23.4 Ci/mmol, PerkinElmer) or D-[^3H] xylose (20 Ci/mmol, American Radiolabeled Chemicals, Inc.). The final concentrations of the external D-[2-^3H] glucose and D-[^3H] xylose were 0.42 μM and 0.5 μM, respectively. Uptake of radio-labeled substrates was terminated at 30 s by rapidly filtering the solution through 0.22 μm GSTF filters (Millipore) and washed with 2.5 ml KPM 6.5 buffer. The filter was solubilized with 0.5 ml Optiphase HISAFE 3 (PerkinElmer) for 30 min for liquid scintillation counting with MicroBeta JET (PerkinElmer). Liposome without protein was used as negative control.
For inhibition assays, an aliquot of 2 μL proteoliposome pre-incubated with 100 μM indicated inhibitors for 0.5 h on ice was added to 98 μL KPM buffer containing 1 μCi D-[2-^3H]-glucose or D-[^3H] xylose with 100 μM inhibitors. To determine the IC50 of the inhibitor, a series of concentrations of the inhibitor was applied as indicated.
All experiments were repeated at least three times. Data for liposome-based counterflow assay were analyzed using GraphPad Prism 6.

[7] = GLUT1, three independent experiments

In the case of `OC[C@H]1O[C@H](O[C@H]2[C@H](O)[C@@H](O)C(O)O[C@@H]2CO)[C@H](O)[C@@H](O)[C@@H]1O` (mixture of isomers) [maltose], the “Inhibition of glucose transport” value ([1]; ref 18 (Deng et al., 2015)) is listed as “could not be completely blocked; also recorded: cannot completely inhibit”, the Preserved transport activity ([1]; ref Deng et al., 2015) is listed as “one third” and the “Inhibition of glucose transport” value (human GLUT3(N43T) [2]; ref 18 (Deng et al., 2015)) is listed as “could not be completely blocked; also recorded: cannot completely inhibit”. For the same compound, the Preserved transport activity (human GLUT3(N43T) [2]; ref Deng et al., 2015) was “one quarter”.
In the case of `C=C1[C@@H](C)[C@H]2[C@H](Cc3ccccc3)NC(=O)[C@]23OC(=O)/C=C/[C@H](O)CCC[C@@H](C)C/C=C/[C@H]3[C@@H]1O` [CCB, cytochalasin B], the “Figure 1e middle: MST binding curve, Mean” value (shortened to “Figure 1e middle”) ([3]; M -3.69897) is reported as 12.3879, the “Figure 1e middle” value ([3]; M -4) is reported as 6.9876 and the “Figure 1e middle” value ([3]; M -4.30103) is reported as 10.2535. For the same compound, the “Figure 1e middle” value ([3]; M -4.60206) was 7.6812, the “Figure 1e middle” value ([3]; M -4.90309) was 5.043 and the “Figure 1e middle” value ([3]; M -5.20412) was 1.714. For the same compound, the “Figure 1e middle” value ([3]; M -5.50515) was 6.889, the “Figure 1e middle” value ([3]; M -5.80618) was 3.628 and the “Figure 1e middle” value ([3]; M -6.10721) was 6.7864. For the same compound, the “Figure 1e middle” value ([3]; M -6.40824) was 7.2964, the “Figure 1e middle” value ([3]; M -6.70927) was 7.035 and the “Figure 1e middle” value ([3]; M -7.0103) was 6.292. The “Figure 1e middle” value ([3]; M -7.31133) was 16.166, the “Figure 1e middle” value ([3]; M -7.61236) was 24.9543 and the “Figure 1e middle” value ([3]; M -7.91339) was 19.4149. The “Figure 1e middle” value ([3]; M -8.21442) was 19.7489, the “Figure 1e middle” value (WT GLUT3; M -5.20412) was 94.2771 and the “Figure 1e middle” value (WT GLUT3; M -5.50515) was 91.6933. For the same compound, the “Figure 1e middle” value (WT GLUT3; M -5.80618) was 73.4039, the “Figure 1e middle” value (WT GLUT3; M -6.10721) was 45.8611 and the “Figure 1e middle” value (WT GLUT3; M -6.40824) was 32.1651. The “Figure 1e middle” value (WT GLUT3; M -7.0103) was 19.0619, the “Figure 1e middle” value (WT GLUT3; M -7.31133) was 12.7467 and the “Figure 1e middle” value (WT GLUT3; M -7.61236) was 11.0147. The “Figure 1e middle” value (WT GLUT3; M -7.91339) was 6.7796, the “Figure 1e middle” value (WT GLUT3; M -8.51545) was 9.6216 and the “Figure 1e middle” value (WT GLUT3; M -8.81648) was 7.333. The “Figure 1e middle” value (WT GLUT3; M -9.11751) was 0.514, the “Figure S1c: transport activity in presence of inhibitor (value1-3)” value [4, 7] was 7.4821 and 5.9756 and the activity at 100 µM ([4]; read-out: Figure S1c: transport activity in presence of inhibitor (value1-3), GLUT1, three independent experiments) was 5.88%.
With `COC1OC(CO)C(O)C(O)C1OC(=O)c1cc(Cl)c(OCc2nc3ccccc3n2C(C)C)c(Cl)c1` (stereo not shown) [SA2] the “Inhibition of glucose uptake” value ([4]; GLUT1) was “almost completely abolished”, the “Figure S1c: transport activity in presence of inhibitor (value1-3)” value [4, 7] was 23.4003 and 23.4095 and 22.1495 and the “Inhibition of glucose uptake” value (human GLUT3(N43T) [5]) was “almost completely abolished”. The “Figure S1d: transport activity in presence of inhibitor (value1-3)” value (human GLUT3(N43T) [5]; three independent experiments, 100 µM) was 15.2946 and 13.6199 and 13.8419, the “Inhibition of xylose transport” value [6] was “moderately inhibited” and the “Figure S1b: transport activity in presence of inhibitor (value1-3)” value ([6]; 100 µM) was 58.0461 and 66.7656 and 51.1774.
